The results in this text go back to ChEMBL document CHEMBL1177749, “Tetracyclic chromane derivatives from Rhododendron anthopogonoides” (J Nat Prod, 2010).

This test relates to Mast cell. Description: Inhibition of compound 48/80-induced histamine release in Wister rat Peritoneal mast cells. The class given is functional, cell-based.
As a reminder, the IC50 is the concentration at which inhibition is half-maximal. Read a high IC50 as a need for much substance. As to `Cc1cc2c(c(O)c1C(=O)O)[C@H]1[C@@H]3[C@@](C)(CCC[C@]3(C)O2)[C@H]1C(=O)CC(C)C` [ANTHOPOGOCHROMANE], the half-inhibitory concentration (IC50) was found to be 114 µM.
Under `C/C(=C\CC[C@@]1(C)C=Cc2c(cc(C)c(C(=O)O)c2O)O1)CC(=O)CC(C)C` [ANTHOPOGOCHROMENE A] stands 63 µM; under `COc1ccc2c(c1)c(CC(=O)O)c(C)n2C(=O)c1ccc(Cl)cc1` [INDOMETHACIN], 250 µM.
